Test results reported in ChEMBL document CHEMBL4665642, “Anticancer profile of newly synthesized BRAF inhibitors possess 5-(pyrimidin-4-yl)imidazo[2,1-b]thiazole scaffold” (Bioorg Med Chem, 2019).

How the values were obtained:
Type in all cases: functional
Settings in all cases: read-out: Activity
[1] = system: SNB-75; test: Cytotoxicity against human SNB-75 cells assessed as cell viability at 10 uM incubated for 48 hrs by sulforhodamine B assay relative to control
[2] = system: RXF 393; test: Cytotoxicity against human RXF 393 cells assessed as cell viability at 10 uM incubated for 48 hrs by sulforhodamine B assay relative to control
[3] = system: SNB-19; test: Cytotoxicity against human SNB-19 cells assessed as cell viability at 10 uM incubated for 48 hrs by sulforhodamine B assay relative to control
[4] = system: A549; test: Cytotoxicity against human A549 cells assessed as cell viability at 10 uM incubated for 48 hrs by sulforhodamine B assay relative to control
[5] = system: NCI-H322M; test: Cytotoxicity against human NCI-H322M cells assessed as cell viability at 10 uM incubated for 48 hrs by sulforhodamine B assay relative to control
[6] = system: SR; test: Cytotoxicity against human SR cells assessed as cell viability at 10 uM incubated for 48 hrs by sulforhodamine B assay relative to control
[7] = system: BT-549; test: Cytotoxicity against human BT-549 cells assessed as cell viability at 10 uM incubated for 48 hrs by sulforhodamine B assay relative to control
[8] = system: SF-268; test: Cytotoxicity against human SF-268 cells assessed as cell viability at 10 uM incubated for 48 hrs by sulforhodamine B assay relative to control
[9] = system: CAKI-1; test: Cytotoxicity against human CAKI-1 cells assessed as cell viability at 10 uM incubated for 48 hrs by sulforhodamine B assay relative to control
[10] = system: LOX IMVI; test: Cytotoxicity against human LOX IMVI cells assessed as cell viability at 10 uM incubated for 48 hrs by sulforhodamine B assay relative to control
[11] = system: NCI/ADR-RES; test: Cytotoxicity against human NCI/ADR-RES cells assessed as cell viability at 10 uM incubated for 48 hrs by sulforhodamine B assay relative to control
[12] = system: Hs-578T; test: Cytotoxicity against human HS-578T cells assessed as cell viability at 10 uM incubated for 48 hrs by sulforhodamine B assay relative to control
[13] = system: U-251; test: Cytotoxicity against human U-251 cells assessed as cell viability at 10 uM incubated for 48 hrs by sulforhodamine B assay relative to control
[14] = system: SF-539; test: Cytotoxicity against human SF-539 cells assessed as cell viability at 10 uM incubated for 48 hrs by sulforhodamine B assay relative to control
[15] = system: IGROV-1; test: Cytotoxicity against human IGROV-1 cells assessed as cell viability at 10 uM incubated for 48 hrs by sulforhodamine B assay relative to control
[16] = system: MCF7; test: Cytotoxicity against human MCF7 cells assessed as cell viability at 10 uM incubated for 48 hrs by sulforhodamine B assay relative to control
[17] = system: SW-620; test: Cytotoxicity against human SW-620 cells assessed as cell viability at 10 uM incubated for 48 hrs by sulforhodamine B assay relative to control
[18] = system: Malme-3M; test: Cytotoxicity against human Malme-3M cells assessed as cell viability at 10 uM incubated for 48 hrs by sulforhodamine B assay relative to control
[19] = system: M14; test: Cytotoxicity against human M14 cells assessed as cell viability at 10 uM incubated for 48 hrs by sulforhodamine B assay relative to control
[20] = system: DU-145; test: Cytotoxicity against human DU-145 cells assessed as cell viability at 10 uM incubated for 48 hrs by sulforhodamine B assay relative to control
[21] = system: SF-295; test: Cytotoxicity against human SF-295 cells assessed as cell viability at 10 uM incubated for 48 hrs by sulforhodamine B assay relative to control
[22] = system: HCC 2998; test: Cytotoxicity against human HCC 2998 cells assessed as cell viability at 10 uM incubated for 48 hrs by sulforhodamine B assay relative to control
[23] = system: UACC-257; test: Cytotoxicity against human UACC-257 cells assessed as cell viability at 10 uM incubated for 48 hrs by sulforhodamine B assay relative to control
[24] = system: MDA-MB-435; test: Cytotoxicity against human MDA-MB-435 cells assessed as cell viability at 10 uM incubated for 48 hrs by sulforhodamine B assay relative to control
[25] = system: SK-MEL-5; test: Cytotoxicity against human SK-MEL-5 cells assessed as cell viability at 10 uM incubated for 48 hrs by sulforhodamine B assay relative to control
[26] = system: EKVX; test: Cytotoxicity against human EKVX cells assessed as cell viability at 10 uM incubated for 48 hrs by sulforhodamine B assay relative to control
[27] = system: HCT-116; test: Cytotoxicity against human HCT-116 cells assessed as cell viability at 10 uM incubated for 48 hrs by sulforhodamine B assay relative to control
[28] = system: NCI-H522; test: Cytotoxicity against human NCI-H522 cells assessed as cell viability at 10 uM incubated for 48 hrs by sulforhodamine B assay relative to control
[29] = system: HCT-15; test: Cytotoxicity against human HCT-15 cells assessed as cell viability at 10 uM incubated for 48 hrs by sulforhodamine B assay relative to control
[30] = system: PC-3; test: Cytotoxicity against human PC-3 cells assessed as cell viability at 10 uM incubated for 48 hrs by sulforhodamine B assay relative to control
[31] = system: OVCAR-8; test: Cytotoxicity against human OVCAR-8 cells assessed as cell viability at 10 uM incubated for 48 hrs by sulforhodamine B assay relative to control
[32] = system: TK-10; test: Cytotoxicity against human TK-10 cells assessed as cell viability at 10 uM incubated for 48 hrs by sulforhodamine B assay relative to control
[33] = system: HOP-62; test: Cytotoxicity against human HOP-62 cells assessed as cell viability at 10 uM incubated for 48 hrs by sulforhodamine B assay relative to control
[34] = system: NCI-H23; test: Cytotoxicity against human NCI-H23 cells assessed as cell viability at 10 uM incubated for 48 hrs by sulforhodamine B assay relative to control
[35] = system: UO-31; test: Cytotoxicity against human UO-31 cells assessed as cell viability at 10 uM incubated for 48 hrs by sulforhodamine B assay relative to control
[36] = system: MDA-MB-231; test: Cytotoxicity against human MDA-MB-231 cells assessed as cell viability at 10 uM incubated for 48 hrs by sulforhodamine B assay relative to control
[37] = system: OVCAR-5; test: Cytotoxicity against human OVCAR-5 cells assessed as cell viability at 10 uM incubated for 48 hrs by sulforhodamine B assay relative to control
[38] = system: SK-MEL-2; test: Cytotoxicity against human SK-MEL-2 cells assessed as cell viability at 10 uM incubated for 48 hrs by sulforhodamine B assay relative to control
[39] = system: RPMI-8226; test: Cytotoxicity against human RPMI-8226 cells assessed as cell viability at 10 uM incubated for 48 hrs by sulforhodamine B assay relative to control
[40] = system: HOP-92; test: Cytotoxicity against human HOP-92 cells assessed as cell viability at 10 uM incubated for 48 hrs by sulforhodamine B assay relative to control
[41] = system: NCI-H226; test: Cytotoxicity against human NCI-H226 cells assessed as cell viability at 10 uM incubated for 48 hrs by sulforhodamine B assay relative to control

O=C(NCCNc1nccc(-c2c(-c3cccc(F)c3)nc3sccn23)n1)c1ccc(C(F)(F)F)cc1
viability at 10 µM [1]: 73.7% | viability at 10 µM [2]: 81.9% | viability at 10 µM [3]: 86.8% | viability at 10 µM [4]: 62.1% | viability at 10 µM [5]: 81.8% | viability at 10 µM [6]: 68.9% | viability at 10 µM [7]: 78.9% | viability at 10 µM [8]: 64.9% | viability at 10 µM [9]: 55% | viability at 10 µM [10]: 64.8% | viability at 10 µM [11]: 73.1% | viability at 10 µM [12]: 85.2% | viability at 10 µM [13]: 77% | viability at 10 µM [14]: 95.7% | viability at 10 µM [15]: 27.8% | viability at 10 µM [16]: 46.3% | viability at 10 µM [17]: 79% | viability at 10 µM [18]: 55.7% | viability at 10 µM [19]: 59.4% | viability at 10 µM [20]: 83.7% | viability at 10 µM [21]: 74.4% | viability at 10 µM [22]: 100% | viability at 10 µM [23]: 96.8% | viability at 10 µM [24]: 47.7% | viability at 10 µM [25]: 56.6% | viability at 10 µM [26]: 69.1% | viability at 10 µM [27]: 50.6% | viability at 10 µM [28]: 65.7% | viability at 10 µM [29]: 53.1% | viability at 10 µM [30]: 61% | viability at 10 µM [31]: 54.8% | viability at 10 µM [32]: 86.1% | viability at 10 µM [33]: 89.9% | viability at 10 µM [34]: 80% | viability at 10 µM [35]: 34.5% | viability at 10 µM [36]: 74.7% | viability at 10 µM [37]: 93.5% | viability at 10 µM [38]: 69% | viability at 10 µM [39]: 52.7% | viability at 10 µM [40]: 86.7% | viability at 10 µM [41]: 64.8%

O=S(=O)(NCCCNc1nccc(-c2c(-c3cccc(F)c3)nc3sccn23)n1)c1cccc(F)c1
viability at 10 µM [1]: 88.6% | viability at 10 µM [2]: 78.8% | viability at 10 µM [3]: 76.8% | viability at 10 µM [4]: 49.3% | viability at 10 µM [5]: 79.9% | viability at 10 µM [6]: 64.9% | viability at 10 µM [7]: 33.2% | viability at 10 µM [8]: 55.6% | viability at 10 µM [9]: 41.5% | viability at 10 µM [10]: 39% | viability at 10 µM [11]: 17.6% | viability at 10 µM [12]: 63.7% | viability at 10 µM [13]: 70% | viability at 10 µM [14]: 86.4% | viability at 10 µM [15]: 18.9% | viability at 10 µM [16]: 33.7% | viability at 10 µM [17]: 76.7% | viability at 10 µM [18]: 63.2% | viability at 10 µM [19]: 28.6% | viability at 10 µM [20]: 55.5% | viability at 10 µM [21]: 51.1% | viability at 10 µM [22]: 99.3% | viability at 10 µM [23]: 50.8% | viability at 10 µM [24]: 24% | viability at 10 µM [25]: 13.5% | viability at 10 µM [26]: 52.4% | viability at 10 µM [27]: 48% | viability at 10 µM [28]: 21.9% | viability at 10 µM [29]: 22.6% | viability at 10 µM [30]: 27.1% | viability at 10 µM [31]: 18.4% | viability at 10 µM [32]: 72.3% | viability at 10 µM [33]: 61.3% | viability at 10 µM [34]: 38.8% | viability at 10 µM [35]: 28.2% | viability at 10 µM [36]: 75.9% | viability at 10 µM [37]: 110% | viability at 10 µM [38]: 47.6% | viability at 10 µM [39]: 28% | viability at 10 µM [40]: 74.8% | viability at 10 µM [41]: 23.2%
